Patent US9096591B2, “Tetracyclic compounds” (Medivation Technologies, Inc., priority 2007, dated 2015)

How the values were obtained:
Settings in all cases: percent inhibition of specific binding
[1] = target: T1, human recombinant serotonin (5-Hydroxytryptamine) 5-HT6 receptor (Homo sapiens, UniProt P50406); test: Serotonin 5-HT6 radioligand binding ([3H]LSD); set-up: Inhibition of ligand binding, Ser. 5-HT6: concentration or dose not given beside the values
T1 construct: expressed in transfected cells; host or cells: human HeLa cells
T1 sequence (P50406 whole entry): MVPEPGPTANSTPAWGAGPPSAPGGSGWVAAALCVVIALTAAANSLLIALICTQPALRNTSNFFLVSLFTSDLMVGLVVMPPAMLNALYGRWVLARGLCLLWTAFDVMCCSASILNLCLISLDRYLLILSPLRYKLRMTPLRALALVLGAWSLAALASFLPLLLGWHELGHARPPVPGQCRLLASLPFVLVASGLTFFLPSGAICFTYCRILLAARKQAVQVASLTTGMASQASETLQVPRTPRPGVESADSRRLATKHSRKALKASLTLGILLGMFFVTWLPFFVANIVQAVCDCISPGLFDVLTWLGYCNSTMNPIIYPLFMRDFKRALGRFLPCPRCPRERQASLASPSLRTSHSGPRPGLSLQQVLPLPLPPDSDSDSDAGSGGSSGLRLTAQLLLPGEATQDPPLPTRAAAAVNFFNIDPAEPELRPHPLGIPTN
Source text: Receptor proteins were filtered and washed, the filters were then counted to determine [3H]LSD specifically bound. […] Biochemical assay results are presented as the percent inhibition of specific binding in Table 6.

[2] = target: T2, human recombinant serotonin (5-Hydroxytryptamine) 5-HT2C receptor (Homo sapiens, UniProt P28335); test: Serotonin 5-HT2C radioligand binding ([3H]Mesulergine); set-up: Inhibition of ligand binding, Ser. 5-HT2C: concentration or dose not given beside the values
T2 construct: expressed in transfected cells; host or cells: CHO-K1 cells
T2 sequence (P28335 33-458): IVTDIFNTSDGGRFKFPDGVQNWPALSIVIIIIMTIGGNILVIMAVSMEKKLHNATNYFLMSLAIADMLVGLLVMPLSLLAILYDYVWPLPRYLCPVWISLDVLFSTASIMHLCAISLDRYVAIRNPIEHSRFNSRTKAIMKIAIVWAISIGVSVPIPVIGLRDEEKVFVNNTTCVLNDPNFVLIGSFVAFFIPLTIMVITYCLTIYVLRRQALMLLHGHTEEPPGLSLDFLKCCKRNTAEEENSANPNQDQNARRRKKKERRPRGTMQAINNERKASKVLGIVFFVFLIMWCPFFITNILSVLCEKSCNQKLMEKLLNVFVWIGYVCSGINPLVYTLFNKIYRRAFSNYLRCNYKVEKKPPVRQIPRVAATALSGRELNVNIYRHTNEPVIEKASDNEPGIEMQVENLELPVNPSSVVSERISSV
Protocol: Compounds of the invention were incubated with 1 nM [^3H]Mesulergine for 60 minutes at 25° C. Non-specific binding was estimated in the presence of 1 μM Mianserin. Receptor proteins were filtered and washed, the filters were then counted to determine [^3H]Mesulergine specifically bound. […] Biochemical assay results are presented as the percent inhibition of specific binding in Table 6.

[3] = target: T3, human recombinant adrenergic α2A receptor (Homo sapiens, UniProt P08913); test: Adrenergic α2A radioligand binding ([3H]MK-912); set-up: Inhibition of ligand binding, Adren. alpha2A: concentration or dose not given beside the values
T3 construct: expressed in transfected cells; host or cells: insect Sf9 cells
T3 sequence (P08913 1-465): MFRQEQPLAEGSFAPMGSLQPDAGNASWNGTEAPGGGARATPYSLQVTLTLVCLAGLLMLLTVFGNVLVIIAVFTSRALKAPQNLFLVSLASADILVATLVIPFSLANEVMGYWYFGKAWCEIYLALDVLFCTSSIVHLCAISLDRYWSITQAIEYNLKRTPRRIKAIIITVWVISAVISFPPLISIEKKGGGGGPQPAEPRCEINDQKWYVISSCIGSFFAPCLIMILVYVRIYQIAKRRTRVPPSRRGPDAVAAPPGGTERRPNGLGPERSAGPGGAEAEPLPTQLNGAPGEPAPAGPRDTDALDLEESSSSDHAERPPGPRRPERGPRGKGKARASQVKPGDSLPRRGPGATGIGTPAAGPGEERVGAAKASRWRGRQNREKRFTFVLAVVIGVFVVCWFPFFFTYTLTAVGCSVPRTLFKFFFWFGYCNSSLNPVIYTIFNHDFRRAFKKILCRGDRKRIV
Summary of the method: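 Membranes from Sf9 cells expressing the receptor were incubated with 1 nM [3H]MK-912 for 60 minutes at 25° C in 50 mM Tris-HCl pH 7.4, 12.5 mM MgCl2, 2 mM EDTA. 10 μM WB-4101 defined non-specific binding. Values are percent inhibition of specific bound radioactivity after filtration.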

Structure (SMILES) | Inhibition of ligand binding, Ser. 5-HT6 [1] [%] | Inhibition of ligand binding, Ser. 5-HT2C [2] [%] | Inhibition of ligand binding, Adren. alpha2A [3] [%]
Cc1ccc2c(c1)c1c(n2CCc2cnccn2)CCN(C)C1 [Compound 62] | 83 | 88 | 51
CN1CCc2c(c3cc(Cl)ccc3n2CCN2CCCCC2)C1 [Compound 189] | 66 | 85 | 76
CC(C)N1CCN(C(=O)Cn2c3c(c4cc(Cl)ccc42)CN(C)CC3)CC1 [Compound 248] | 67 | 59 | 27
CN1CCc2c(c3cc(F)ccc3n2CCc2ccc(Cl)cc2)C1 [Compound 249] | 101 | 98 | 97
Cc1ccc2c(c1)c1c(n2CC(=O)N2CCC(C)CC2)CCN(C)C1 [Compound 251] | 7 | 23 | 2
Cc1ccc(CCn2c3c(c4cc(C(=O)O)ccc42)CN(C)CC3)cn1 [Compound 256, 2-Methyl-5-(2-(6-methylpyridin-3-yl)ethyl)-2,3,4,5-tetrahydro-1H-pyrido[4,3-b]indole-8-carboxylic acid] | 2 | 0 | −7
Cc1ccc2c(c1)c1c(n2CC(=O)N2CCCC2)CCN(C)C1 [Compound 257, 2-(1,2,3,4-tetrahydro-2,8-dimethylpyrido[4,3-b]indol-5-yl)-1-(pyrrolidin-1-yl)ethanone] | 2 | 47 | −4
Cc1ccc(CCn2c3c(c4cc(CO)ccc42)CN(C)CC3)cn1 [Compound 263] | 31 | 31 | 34
CN1CCc2c(c3cc(Cl)cc(F)c3n2CCc2ccc(C(F)(F)F)nc2)C1 [Compound 338, 8-chloro-6-fluoro-5-(2-(6-(trifluoromethyl)pyridin-3-yl)ethyl)-2,3,4,5-tetrahydro-2-methyl-1H-pyrido[4,3-b]indole] | 66 | 68 | 99
CN1CCc2c(c3cc(OC(F)(F)F)ccc3n2CCc2ccc(C(F)(F)F)nc2)C1 [Compound 341, 5-(2-(6-(trifluoromethyl)pyridin-3-yl)ethyl)-2,3,4,5-tetrahydro-2-methyl-8-(trifluoromethoxy)-1H-pyrido[4,3-b]indole] | 17 | 16 | 36
CC(C)c1ccc2c(c1)c1c(n2CCc2ccc(C(F)(F)F)nc2)CCN(C)C1 [Compound 342, 8-Isopropyl-2-methyl-5-[2-(6-trifluoromethyl-pyridin-3-yl)-ethyl]-2,3,4,5-tetrahydro-1H-pyrido[4,3-b]indole] | 72 | 73 | 94
CN1CCc2c(c3cc(Cl)c(F)cc3n2CCc2ccc(C(F)(F)F)nc2)C1 [Compound 343] | 57 | 69 | 90
OC1CCC(N2CCc3c(c4cc(Cl)ccc4n3CCc3ccc(C(F)(F)F)nc3)C2)C1 (stereo not drawn) [Compound 351, 3-(8-chloro-5-(2-(6-(trifluoromethyl)pyridin-3-yl)ethyl)-3,4-dihydro-1H-pyrido[4,3-b]indol-2(5H)-yl)cyclopentanol] | −4 | 26 | 8
Cc1ccc2c(n1)c1c(n2CCc2ccc(C(F)(F)F)nc2)CCN(C)C1 [Compound 353, 9-aza-2,8-dimethyl-5-(2-(6-(trifluoromethyl)pyridin-3-yl)ethyl)-2,3,4,5-tetrahydro-1H-pyrido[4,3-b]indole] | 0 | −15 | 8
CCc1ccc2c(c1)c1c(n2CCc2ccc(C(F)(F)F)nc2)CCN(C)C1 [Compound 358, 8-Ethyl-2-methyl-5-[2-(6-trifluoromethyl-pyridin-3-yl)-ethyl]-2,3,4,5-tetrahydro-1H-pyrido[4,3-b]indole] | 65 | 78 | 96
CCc1ccc(CCn2c3c(c4cc(C)ccc42)CN(C)CC3)cn1 [Compound 359, 5-[2-(6-Ethyl-pyridin-3-yl)-ethyl]-2,8-dimethyl-2,3,4,5-tetrahydro-1H-pyrido[4,3-b]indole] | 95 | 91 | 77
Cc1ncc(CCn2c3c(c4cc(Cl)ccc42)CN(C)CC3)cn1 [Compound 361, 8-Chloro-2-methyl-5-[2-(2-methyl-pyrimidin-5-yl)-ethyl]-2,3,4,5-tetrahydro-1H-pyrido[4,3-b]indole] | 76 | 58 | 30
CCc1ccc2c(c1)c1c(n2CCc2cnc(C)nc2)CCN(C)C1 [Compound 362, 8-Ethyl-2-methyl-5-[2-(2-methyl-pyrimidin-5-yl)-ethyl]-2,3,4,5-tetrahydro-1H-pyrido[4,3-b]indole] | 61 | 40 | 14
Cc1cnc(CCn2c3c(c4cc(Cl)ccc42)CN(C)CC3)cn1 [Compound 363, 8-Chloro-2-methyl-5-[2-(5-methyl-pyrazin-2-yl)-ethyl]-2,3,4,5-tetrahydro-1H-pyrido[4,3-b]indole] | 83 | 66 | 59
CCc1ccc2c(c1)c1c(n2CCc2cnc(C)cn2)CCN(C)C1 [Compound 364, 8-Ethyl-2-methyl-5-[2-(5-methyl-pyrazin-2-yl)-ethyl]-2,3,4,5-tetrahydro-1H-pyrido[4,3-b]indole] | 70 | 81 | 65
Cc1cnc(CCn2c3c(c4cc(C(C)C)ccc42)CN(C)CC3)cn1 [Compound 369, 8-Isopropyl-2-methyl-5-[2-(5-methyl-pyrazin-2-yl)-ethyl]-2,3,4,5-tetrahydro-1H-pyrido[4,3-b]indole] | 23 | 57 | 25
Cc1ncc(CCn2c3c(c4cc(C(C)C)ccc42)CN(C)CC3)cn1 [Compound 370, 8-Isopropyl-2-methyl-5-[2-(2-methyl-pyrimidin-5-yl)-ethyl]-2,3,4,5-tetrahydro-1H-pyrido[4,3-b]indole] | 64 | 40 | 35
Cc1cccc2c3c(n(CCc4ccc(C(F)(F)F)nc4)c12)CCN(C)C3 [Compound 380, 5-(2-(6-(trifluoromethyl)pyridin-3-yl)ethyl)-2,3,4,5-tetrahydro-2,6-dimethyl-1H-pyrido[4,3-b]indole] | 39 | 70 | 78
Cc1ccc2c(c1)c1c(n2CCc2cncnc2)CCN(C)C1 [Compound 387, 2,8-Dimethyl-5-(2-pyrimidin-5-yl-ethyl)-2,3,4,5-tetrahydro-1H-pyrido[4,3-b]indole] | 79 | 76 | 12
